For the test, the target named is T1, Bcl-xL (Homo sapiens, UniProt Q07817).
T1 construct: made in house
Kind of test: Alpha Screen Bcl-xL binding assay, competition with Bim26-mer. As to conditions: values listed in the order of Table 1; read-out: Alphascreen results (IC50). The protocol: The measurement of competition of compounds of the invention with Bim26-mer for a Bcl-2 family protein binding site using an Alpha Screen Bcl-xL Binding Assay:
The BH3 proteins ALPHASCREEN™ assay was used to identify active small molecules Bcl-2 family protein screen. e.g., Bcl-xL, hmMcl-1 screen. To determine an accurate estimation of the IC50, the compounds were routinely tested at starting concentrations, 100 μM and/or 1 μM and serially titrated 3 fold over 11 dilutions.
The beads come in close proximity when the protein and the peptides interact. Donor beads contain a photosensitiser that converts oxygen to an excited form of O2 at an excitation of 680 nm. Energy is transformed from the singlet oxygen and reacts with chemiluminescers on the acceptor bead, resulting in light emission at 520-620 nm. […] With this information, the IC50 of each compound was calculated
GST-Bcl-xL, GST-hmMcl-1 and biotinylated GST proteins were prepared in-house and were stored as stock solutions at −80° C. The biotinylated-Bak, and biotinylated-Bim peptides were purchased from Auspep and were stored as 500 μM stock solutions in 100% DMSO at −80° C. The ALPHASCREEN™ GST (Glutathione-S-Transferase) Detection Kit was obtained from Perkin Elmer Lifesciences (Cat #6760603R). The Proxiplates, white 384 well flat-Bottom plates were purchased from Interpath Services, Melbourne (Cat #784075). The seals to cover the plates were purchased from Proscience. Melbourne (Cat#784075). DMSO was purchased from AnalaR. The 384 deep well plates and the Polypropylene 50 μL, V bottom polypropylene compound plates were purchased from Matrical.
Compounds of the invention were prepared as 10 mM stocks with 100% DMSO on the day prior to performing the assay. […] To achieve a final compound concentration of 1 μM, in a separate matrical plate, 28 μL of 100% DMSO and 2 μL of 10 mM compound was added to a well, mixed well. 2 μL of this solution was taken and added to 38 μL of 100% DMSO. 20 μL of this solution was added to the test matrical plate. Several control compounds were included in the test plates. For the control wells 15 μL 100% DMSO only was added to the appropriate wells of each plate. The compound plates were then serially diluted 2 fold using the MiniTrak. Once titrations were complete, the compound plate was immediately covered with a foil seal to prevent evaporation.
The assay and bead buffers were prepared fresh. Each titrated compound plate was assayed in duplicate. The following volumes were sufficient to run 12 Proxiplates (4 assay plates run in duplicate in each of Bclxl, hmMcl and counter assays)
Protein and Peptide Preparation; and Assay Performance • 1. The assay and bead buffers were used to prepare the acceptor and donor solutions. ALPHASCREEN™ beads are light sensitive and therefore prepared in a darkened room. 2.5 μL of beads were added per 1 mL of buffer. • 2. The volume of protein or peptide to add was calculated using the following formula:
[formula] • C1=Final Concentration of protein/peptide • C2=Stock Concentration of protein/peptide • V1=Total Volume of Acceptor/Donor Solution • V2=Volume of stock protein/Peptide to add to Acceptor/Donor solution • 3. The assay components were prepared as separate Acceptor and Donor Solutions. The Acceptor Solution contained Acceptor heads and target protein, while the Donor Solution contained Donor beads and biotinylated peptide.
• 4. After the solutions were prepared, they were left to incubate for 30 minutes at room temperature to allow the beads to bind to the protein and the peptide. • 5. 50 μL of Bcl-xL solution, 50 μL of hmMcl-1 solution and 50 µL of biotinylated-GST were added into separate deep wells on an assay plate. A control […]. Assay/Bead buffer was added separate well plates (no protein). • 6.
(In general: Alpha assays give light when donor and acceptor beads are brought close together.)

T1 sequence (Q07817 whole entry, species assumed): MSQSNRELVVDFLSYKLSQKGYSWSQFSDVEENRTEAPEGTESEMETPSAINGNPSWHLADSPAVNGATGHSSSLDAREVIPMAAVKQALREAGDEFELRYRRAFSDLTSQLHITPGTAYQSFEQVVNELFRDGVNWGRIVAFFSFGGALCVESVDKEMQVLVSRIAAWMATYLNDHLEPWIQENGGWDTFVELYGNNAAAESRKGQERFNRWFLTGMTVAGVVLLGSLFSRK

As usually defined, the IC50 is the midpoint of a concentration-inhibition curve. Turning to `CN1CCN(C(=O)Nc2nc3ccccc3s2)c2cc(-c3cccc(C(=O)O)n3)ccc21` [Example 3], the IC50 was 5390 nM.
Consider `CC(C)COc1ccc(-c2ccc3c(c2)N(C(=O)Nc2nc4ccccc4s2)CCC3)nc1C(=O)O` [Example 4], for which the IC50 was found to be 1440 nM.
Consider `O=C(O)c1nc(-c2ccc3c(c2)N(C(=O)Nc2nc4ccccc4s2)CCC3)ccc1OCCOc1ccccc1` [Example 19], for which the IC50 worked out at 2 nM.
Next, `Nc1cccc(OCc2cccc(-c3ccc(-c4ccc5c(c4)N(C(=O)Nc4nc6ccccc6s4)CCC5)nc3C(=O)O)c2)c1` [Example 41]: 5 nM.
Take `O=C(O)c1nc(-c2ccc3c(c2)N(C(=O)Nc2nc4ccccc4s2)CCC3)ccc1OCCCOc1cccc2cccnc12` [Example 46]: the IC50 was 10 nM.
Regarding `Cc1ccc(-c2sc(-c3ccc4c(c3)N(C(=O)Nc3nc5ccccc5s3)CCO4)nc2C(=O)O)cc1` [Example 64, 2-(4-(benzo[d]thiazol-2-ylcarbamoyl)-3,4-dihydro-2H-benzo[b][1,4]oxazin-6-yl)-5-p-tolylthiazole-4-carboxylic acid], the IC50 is 310 nM.
On to `O=C(O)c1nc(-c2ccc3c(c2)N(C(=O)Nc2nc4ccccc4s2)CCC3)sc1Oc1ccc(F)cc1` [Example 65, 2-(1-(benzo[d]thiazol-2-ylcarbamoyl)-1,2,3,4-tetrahydroquinolin-7-yl)-5-(4-fluorophenoxy)thiazole-4-carboxylic acid], for which the IC50 was determined as 230 nM.
For `COc1ccc(-c2sc(-c3ccc4c(c3)N(C(=O)Nc3nc5ccccc5s3)CCO4)nc2C(=O)O)cc1` [Example 66, 2-(4-(benzo[d]thiazol-2-ylcarbamoyl)-3,4-dihydro-2H-benzo[b][1,4]oxazin-6-yl)-5-(4-methoxyphenyl)thiazole-4-carboxylic acid], the IC50 came to 110 nM.
Consider `COc1cccc(-c2sc(-c3ccc4c(c3)N(C(=O)Nc3nc5ccccc5s3)CCO4)nc2C(=O)O)c1` [Example 67, 2-(4-(benzo[d]thiazol-2-ylcarbamoyl)-3,4-dihydro-2H-benzo[b][1,4]oxazin-6-yl)-5-(3-methoxyphenyl)thiazole-4-carboxylic acid], for which the IC50 came to 200 nM.
Take `COc1ccc(Oc2sc(-c3ccc4c(c3)N(C(=O)Nc3nc5ccccc5s3)CCO4)nc2C(=O)O)cc1` [Example 69, 2-(4-(benzo[d]thiazol-2-ylcarbamoyl)-3,4-dihydro-2H-benzo[b][1,4]oxazin-6-yl)-5-(4-methoxyphenoxy)thiazole-4-carboxylic acid]: the IC50 was 680 nM.
On to `NC(=O)c1nc(-c2ccc3c(c2)N(C(=O)Nc2nc4ccccc4s2)CCC3)sc1Oc1ccc(F)cc1` [Example 70, 2-(1-(benzo[d]thiazol-2-ylcarbamoyl)-1,2,3,4-tetrahydroquinolin-7-yl)-5-{4-fluorophenoxy)thiazole-4-carboxamide], for which the IC50 stood at 10000 nM.
As for `COc1ccc(-c2sc(-c3ccc4c(c3)N(C(=O)Nc3nc5ccc(F)cc5s3)CCC4)nc2C(=O)O)cc1` [Example 72, 2-(1-(6-fluorobenzo[d]thiazol-2-ylcarbamoyl)-1,2,3,4-tetrahydroquinolin-7-yl)-5-(4-methoxyphenyl)thiazole-4-carboxylic acid], the IC50 was 10100 nM.
With `O=C(O)c1nc(-c2ccc3c(c2)N(C(=O)Nc2nc4ccccc4s2)CCO3)sc1CCCSc1ccncc1` [Example 73, 2-(4-(benzo[d]thiazol-2-ylcarbamoyl)-3,4-dihydro-2H-benzo[b][1,4]oxazin-6-yl)-5-(3-(pyridin-4-ylthio)propyl)thiazole-4-carboxylic acid] the figure was 8 nM.
As to `CN(CCOc1ccccc1)c1sc(-c2ccc3c(c2)N(C(=O)Nc2nc4ccccc4s2)CCO3)nc1C(=O)O` [Example 76, 2-(4-(benzo[d]thiazol-2-ylcarbamoyl)-3,4-dihydro-2H-benzo[b][1,4]oxazin-6-yl)-5-(methyl(2-phenoxyethyl)amino)thiazole-4-carboxylic acid], the IC50 was determined as 390 nM.
Take `O=C(O)c1nc(-c2ccc3c(c2)N(C(=O)Nc2nc4ccccc4s2)CCO3)sc1CCCCc1ccccc1` [Example 77, 2-(4-(benzo[d]thiazol-2-ylcarbamoyl)-3,4-dihydro-2H-benzo[b][1,4]oxazin-6-yl)-5-(4-phenylbutyl)thiazole-4-carboxylic acid]: the IC50 stood at 120 nM.
As to `O=C(O)c1nc(-c2ccc3c(c2)N(C(=O)Nc2nc4ccccc4s2)CCC3)sc1CCCOc1ccccc1` [Example 78, 2-(1-(benzo[d]thiazol-2-ylcarbamoyl)-1,2,3,4-tetrahydroquinolin-7-yl)-5-(3-phenoxypropyl)thiazole-4-carboxylic acid], the IC50 is 0.6 nM.
On to `Nc1cccc(OCCCc2sc(-c3ccc4c(c3)N(C(=O)Nc3nc5ccccc5s3)CCC4)nc2C(=O)O)c1` [Example 82, 5-(3-(3-aminophenoxy)propyl)-2-(1-(benzo[d]thiazol-2-ylcarbamoyl)-1,2,3,4-tetrahydroquinolin-7-yl)thiazole-4-carboxylic acid], for which the IC50 was determined as 0.7 nM.
Regarding `NCc1ccc(OCCCc2sc(-c3ccc4c(c3)N(C(=O)Nc3nc5ccccc5s3)CCO4)nc2C(=O)O)cc1` [Example 83, 5-(3-(4-(aminomethyl)phenoxy)propyl)-2-(4-(benzo[d]thiazol-2-ylcarbamoyl)-3,4-dihydro-2H-benzo[b][1,4]oxazin-6-yl)thiazole-4-carboxylic acid], the IC50 was 5 nM.
With `CC(C)(C)OC(=O)Nc1ccc(OCCCc2sc(-c3ccc4c(c3)N(C(=O)Nc3nc5ccccc5s3)CCC4)nc2C(=O)O)cc1` [Example 85, 2-(1-(benzo[d]thiazol-2-ylcarbamoyl)-1,2,3,4-tetrahydroquinolin-7-yl)-5-(3-(4-(tert-butoxycarbonylamino)phenoxy)propyl)thiazole-4-carboxylic acid] the figure was 0.5 nM; with `O=C(O)c1nc(-c2ccc3c(c2)N(C(=O)Nc2nc4ccccc4s2)CCO3)ccc1OCCCc1ccccc1` [Example 88, 6-(4-(benzo[d]thiazol-2-ylcarbamoyl)-3,4-dihydro-2H-benzo[b][1,4]oxazin-6-yl)-3-(3-phenylpropoxy)picolinic acid], 65 nM.
With `O=C(O)c1nc(-c2ccc3c(c2)N(C(=O)Nc2cc4ccccn4n2)CCO3)ccc1OCCCc1ccccc1` [Example 89, 3-(3-phenylpropoxy)-6-(4-(pyrazolo[1,5-a]pyridin-2-ylcarbamoyl)-3,4-dihydro-2H-benzo[b][1,4]oxazin-6-yl)picolinic acid] the figure was 235 nM.
Take `CS(=O)(=O)NC(=O)c1nc(-c2ccc3c(c2)N(C(=O)Nc2nc4ccccc4s2)CCO3)ccc1OCCCc1ccccc1` [Example 91, N-(benzo[d]thiazol-2-yl)-6-(6-(methylsulfonylcarbamoyl)-5-(3-phenylpropoxy)pyridin-2-yl)-2H-benzo[b][1,4]oxazin-4(3H)-carboxamide]: the IC50 is 140 nM.
With `O=C(O)c1nc(-c2ccc3c(c2)N(C(=O)Nc2nc4ccccc4s2)CCC3)sc1Oc1ccc(-n2ncc3cncnc32)cc1` [Example 93, 5-(4-(1H-pyrazolo[3,4-d]pyrimidin-1-yl)phenoxy)-2-(1-(benzo[d]thiazol-2-ylcarbamoyl)-1,2,3,4-tetrahydroquinolin-7-yl)thiazole 4-carboxylic acid], the IC50 came out at 40 nM.

The record behind these values is patent US9067928B2 (Genentech, Inc., priority 2008, dated 2015).
